Test results as given in patent US20030050305A1, “Thromboxane inhibitors, compositions and methods of use” (priority 2000, published 2003).
Each block holds one compound with its values, some of them ahead of it.

Assays:
[1] = test system: Human corpus cavernosum tissue; assay: Relaxation of human corpus cavernosum tissue strips contracted with phenylephrine (organ chamber); conditions: for Relative potency in relaxing human corpus cavernosum tissue (FIG. 1B): after treatment with 0.02 μM SQ 29548; for Relaxation response in tissue from diabetic compared to non-diabetic patients (FIG. 4A, 4B): increasing concentrations of the prostaglandin alone
Description: (§1) Human corpus cavernosum specimens were obtained from impotent men at the time of penile prosthesis insertion. Tissues were maintained at 4-6° C. in M-400 solution, pH 7.4 (composition per 100 ml: mannitol, 4.19 g; KH2PO4, 0.205 g; K2HPO4.3H2O, 0.97 g; KCl, 0.112 g; NaHCO3, 0.084 g) until used. Corpus cavernosum tissues were typically used between 2 and 16 hours from extraction.
(§2) Measurement of the relaxation of corpus cavemosal tissue was carried out as follows. Corpus cavernosal tissue strips (3×3×7 mm) were immersed in a 8 ml organ chamber containing physiological salt solution, maintained at 37° C. and aerated with 5% CO2/95% air, pH 7.4. The tissues were then contracted with phenylephrine (1 μM) and the relaxation response was evaluated after the cumulative addition of the compound to the organ chamber.
(§3) In experiments where the effect of the thromboxane A2 receptor antagonist, SQ 29548 , was measured, […] was added 20 minutes before the addition of phenylephrine. In experiments where the effect of the thromboxane A2 agonist, U 46619 was measured, U 46619 was added after the phenylephrine-induced contractions stabilized, and then prostaglandin PGE1 was added 10 minutes later, if required.
The data are expressed as mean i standard error of the percentage of total relaxation induced by 100 μM papaverine hydrochloride. Statistical analysis were conducted using a two-factor ANOVA statistical analysis using StatView software for Apple computers.

[2] = test system: Human corpus cavernosum resistance arteries (helicine arteries); assay: Relaxation of human corpus cavernosum resistance arteries contracted with norepinephrine (myograph); conditions: SQ 29548 0.02 μM; increasing concentrations of acetylcholine; contracted with 1 μM norepinephrine; P<0.01
Description: Human corpus cavernosum tissues were prepared according to Example 1. Penile small arteries, helicine arteries (lumen diameter 150-400 μ), which are the terminal branches of deep penile arteries, were dissected by carefully removing the adhering trabecular tissue. Arterial ring segments (2 mm long) were subsequently mounted on two 40 μm wires on microvascular double Halpern-Mulvany myographs (J. P. Trading, Aarhus, Denmark) for isometric tension recordings.
Measurement of the relaxation of corpus cavernosal resistant arteries was carried out as follows. […]
The segments were then exposed to 125 mM K^+ (physiological salt solution potassium salt form, by the equimolar substitution of […] in physiological salt solution) and the contraction response was measured. The arteries were contracted with 1 μM norepinephrine and relaxation responses were evaluated by cumulative additions of the acetylcholine (1 nM to 3 μ) to the organ chamber. The segments were washed with fress physiological salt solution, treated with the thromboxane inhibitor SQ 29548 (0.02 μM) and the response to acetylcholine measured again.

[3] = test system: Human corpus cavernosum tissue; assay: Contractile response of human corpus cavernosum tissue from diabetic and non-diabetic patients to U 46619; conditions: tissue from diabetic vs non-diabetic patients; P<0.01
Description: as §1, §2, §3
The tissues were prepared according to Example 1. […]

[4] = contracted with 1 μM phenylephrine

Compound: CCCCC[C@H](O)CC[C@H]1[C@H](O)CC(=O)[C@@H]1CCCCCCC(=O)O [PGE0]
Relative potency in relaxing human corpus cavernosum tissue (FIG. 1B) [1, 4]: equipotent
Response of the tissue to increasing concentrations of the prostaglandin alone (FIG. 1A) ([1]; higher concentrations of PGE0, absence of SQ 29548, contracted with 1 μM phenylephrine): significant contraction of the tissue
Relaxation response in tissue from hypertensive compared to non-hypertensive patients (FIG. 7) ([1]; increasing concentrations of PGE0, contracted with 1 μM phenylephrine, P<0.01): significant reduction in the relaxation of the tissue from hypertensive patients
Relaxation response in tissue from diabetic compared to non-diabetic patients (FIG. 4A, 4B) [1, 4]: significant reduction in the relaxation of the tissue from diabetic patients

Compound: CCCCC[C@H](O)/C=C/[C@H]1[C@H](O)CC(=O)[C@@H]1CCCCCCC(=O)O [PGE1, alprostadil]
Relative potency in relaxing human corpus cavernosum tissue (FIG. 1B) [1, 4]: equipotent
Relaxation response in tissue from diabetic compared to non-diabetic patients (FIG. 4A, 4B) [1, 4]: no difference in the relaxation response

Effect of the thromboxane A2 receptor antagonist on the relaxation induced by PGE0 (FIG. 2) ([1]; SQ 29548 0.02 μM, added 20 minutes before phenylephrine, increasing concentrations of PGE0, P<0.01): significant relaxation of the tissue
Effect of the thromboxane A2 receptor antagonist on the relaxation induced by acetylcholine (FIG. 8) [2]: significant relaxation of the tissue
Compound: O=C(O)CCC/C=C\C[C@@H]1[C@H](CNNC(=O)Nc2ccccc2)[C@H]2CC[C@@H]1O2 [SQ 29548]
Effect on the reduced relaxation to PGE0 of tissue from diabetic patients (FIG. 5) ([1]; addition of 0.02 μM SQ 29548, diabetic vs non-diabetic tissue): This reduction in the relaxation of the tissue was eliminated

Effect of the thromboxane A2 receptor agonist on the relaxation induced by PGE1 (FIG. 3) ([1]; U 46619 0.003 μM, increasing concentrations of prostaglandin, P<0.01): significant contraction of the tissue
Compound: CCCCC[C@H](O)/C=C/[C@@H]1[C@@H](C/C=C\CCCC(=O)O)[C@H]2CO[C@@H]1C2 [U 46619]
Contraction response induced by increasing concentrations of the thromboxane agonist (FIG. 6) [3]: significant contraction of the tissue obtained from diabetic patients
